This note sets out measurements from patent US20050261290A1, “Novel compounds of proline and morpholine derivatives” (priority 2004, published 2005).

For this test, the target named is human 11b-hsd-1 (Homo sapiens, UniProt P28845). The test is described as follows: Inhibition constant Ki of human 11b-hsd-1 (3H-cortisone to 3H-cortisol conversion, HPLC). Type of test: biochemical. The note with it: for Ki: apparent Ki, read-out: Ki app.

Where two headings read alike, the source gives them in different places.

The inhibition is the change of the read-out against control, counted positive when it falls. The low end stands for a response near the control, the high end for a response far below the control.

Sequence of human 11b-hsd-1 (P28845 whole entry): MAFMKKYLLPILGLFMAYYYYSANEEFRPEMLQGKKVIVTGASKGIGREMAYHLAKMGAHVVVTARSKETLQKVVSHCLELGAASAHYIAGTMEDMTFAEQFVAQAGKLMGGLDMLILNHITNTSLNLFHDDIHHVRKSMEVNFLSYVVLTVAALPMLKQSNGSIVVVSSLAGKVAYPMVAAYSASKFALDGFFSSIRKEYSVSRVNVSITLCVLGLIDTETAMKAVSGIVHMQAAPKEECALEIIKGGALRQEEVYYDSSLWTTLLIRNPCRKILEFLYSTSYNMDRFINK
Experimental: In each well, varying amounts of compounds are incubated with a fixed amount of 11b-hsd-1 (4 nM) and NADPH (500 μM) for 30 to 40 min at room temperature in the assay buffer. The enzyme concentration was determined by titration using reversible tight-binding inhibitors. […] The area of 3H-cortisol is calculated and plotted versus time to determine a linear velocity. […] Where vi, and vo are the rates of cortisol formation in the presence and in the absence of inhibitor, respectively, I is the inhibitor concentration and E is the 11 b-hsd-1 concentration in the assay buffer. […] NADPH, Glucose-6-Phosphate (G6P), and Glucose-6-Phosphate dehydrogenase was purchased from Sigma.

In the case of `O=C(NC12CC3CC(CC(C3)C1)C2)[C@H]1CCCC[C@H]1NCc1ccc(Cl)cc1` (racemic) [Example 201], the Ki is 5.9 nM. Also, testing at 0.1 µM (0.1 μM compound) gave an inhibition of 100%.
The like results for `O=C(NC12CC3CC(CC(C3)C1)C2)[C@@H]1[C@H]2CC[C@H](C2)N1Cc1ccc(Cl)cc1` (racemic) [Example 204] were, in that order, 1 nM and 100%.
In the same order, the values of `O=C(NC12CC3CC(CC(C3)C1)C2)[C@H]1[C@H]2CC[C@H](C2)N1Cc1ccc(Cl)cc1` (relative stereo) [Example 203] are 1 nM and 100%.
In the same order, the values of `CC(C)CN1[C@H]2CC[C@H](C2)[C@H]1C(=O)NC12CC3CC(CC(C3)C1)C2` (relative stereo) [Example 209] are 1.9 nM and 100%.
As for `CC(C)CN1[C@H]2CC[C@H](C2)[C@@H]1C(=O)NC12CC3CC(CC(C3)C1)C2` (relative stereo) [Example 210], the Ki stood at 1 nM. Moreover, the inhibition at 0.1 µM (0.1 μM compound) was determined as 100%.
On to `CCN1CCOC[C@@H]1C(=O)NC1C2CC3CC(C2)CC1C3` (stereo partly drawn) [Example 1, (R)-4-Ethyl-morpholine-3-carboxylic acid adamantan-2-ylamide], for which the Ki (human 11b-hsd-1) was 2.1 nM. Under “compound at 0.1 μM”, this compound registered an inhibition at 0.1 µM of 100%.
In the same order, the values of `O=C(NC1C2CC3CC(C2)CC1C3)[C@H]1COCCN1Cc1ccccc1` (stereo partly shown) [Example 2] are 2.4 nM and 100%.
The like results for `O=C(NCc1ccccc1)[C@H]1CCCN1CC1CCCCC1` [Example 3, N-benzyl-1-(cyclohexylmethyl)-D-prolinamide] were, in that order, 15 nM and 92%.
The like results for `CC(C)CN1CCC[C@@H]1C(=O)NCc1ccccc1` [Example 4] were, in that order, 3.6 nM and 94%.
In the case of `O=C(NCc1ccccc1)[C@@H]1CCCN1CC1CCCCC1` [Example 5, N-benzyl-1-(cyclohexylmethyl)-L-prolinamide], under “compound at 0.1 μM”, the inhibition at 0.1 µM was found to be 29%.
On to `O=C(NC12CC3CC(CC(C3)C1)C2)[C@H]1CCCN1CC1CCCCC1` [Example 9, N-1-adamantyl-1-(cyclohexylmethyl)-D-prolinamide], for which the Ki (human 11b-hsd-1) stood at 1.7 nM. For the same compound, the inhibition at 0.1 µM (compound at 0.1 μM) is 100%.
In the same order, the values of `O=C(NC12CC3CC(CC(C3)C1)C2)[C@H]1CCCN1Cc1ccc(Cl)cc1` [Example 10] are 0.85 nM and 100%.
In the same order, the values of `CN(C(=O)[C@H]1COCCN1CC1CCCCC1)C1CCCCC1` [Example 11, (3R)-N-cyclohexyl-4-(cyclohexylmethyl)-N-methylmorpholine-3-carboxamide] are 38.3 nM and 80%.
Consider `CCN1CCCC[C@@H]1C(=O)NC12CC3CC(CC(C3)C1)C2` [Example 12], for which, for the setting “human 11b-hsd-1”, the Ki was 14 nM. Further, the inhibition at 0.1 µM (compound at 0.1 μM) was found to be 89%.
As for `O=C(NCc1ccc(Cl)cc1)[C@H]1CCCN1CC1CCCCC1` [Example 13], the Ki (human 11b-hsd-1) was 1 nM. Where the note is “compound at 0.1 μM”, the inhibition at 0.1 µM was 85%.
In the same order, the values of `CC(=O)N1CCC[C@@H]1C(=O)NC1C2CC3CC(C2)CC1C3` (stereo partly drawn) [Example 18, N-2-adamantyl-1-acetyl-D-prolinamide] are 16.4 nM and 85%.
In the same order, the values of `NC(=O)CN1CCC[C@@H]1C(=O)NC1C2CC3CC(C2)CC1C3` (stereo partly shown) [Example 19] are 17 nM and 86%.
In the same order, the values of `CN1CCC[C@@H]1C(=O)NC12CC3CC(CC(C3)C1)C2` [Example 20] are 23.3 nM and 72%.
As for `CCCN1CCC[C@@H]1C(=O)NC12CC3CC(CC(C3)C1)C2` [Example 21], for the setting “human 11b-hsd-1”, the Ki amounted to 1.2 nM. Besides, 0.1 µM produced 100% inhibition (compound at 0.1 μM).
In the same order, the values of `O=C(NC12CC3CC(CC(C3)C1)C2)[C@H]1CCCN1CC(F)(F)F` [Example 22] are 0.85 nM and 100%.
In the same order, the values of `CCN1CCC[C@@H]1C(=O)NC12CC3CC(CC(C3)C1)C2` [Example 23] are 2.6 nM and 94%.
The like results for `CCN1C[C@H](O)C[C@@H]1C(=O)NC1C2CC3CC(C2)CC1C3` (stereo partly shown) [Example 24] were, in that order, 1.4 nM and 100%.
On to `CC(C)CN1C[C@H](O)C[C@@H]1C(=O)NC1C2CC3CC(C2)CC1C3` (stereo partly shown) [Example 25], for which, under “human 11b-hsd-1”, the Ki amounted to 1.7 nM. Also, where the note is “compound at 0.1 μM”, testing at 0.1 µM gave an inhibition of 100%.
The like results for `O=C(NC1C2CC3CC(C2)CC1C3)[C@H]1C[C@@H](O)CN1Cc1ccccc1` (stereo partly shown) [Example 26] were, in that order, 1 nM and 100%.
As for `O=C(NC1C2CC3CC(C2)CC1C3)[C@H]1C[C@@H](O)CN1Cc1ccc(F)cc1` (stereo partly shown) [Example 27], the Ki (human 11b-hsd-1) stood at 1.1 nM. Besides, the inhibition at 0.1 µM (compound at 0.1 μM) was 100%.
In the case of `O=C(NC1C2CC3CC(C2)CC1C3)[C@H]1C[C@@H](O)CN1CC1CCCC1` (stereo partly drawn) [Example 28, (4R)-N-2-adamantyl-1-cyclopentylmethyl-4-hydroxy-D-prolinamide], for the setting “human 11b-hsd-1”, the Ki turned out to be 1 nM. This compound yielded an inhibition at 0.1 µM (compound at 0.1 μM) of 100%.
In the same order, the values of `CC(C)CN1C[C@H](O)C[C@@H]1C(=O)NC1CCCCC1` [Example 29] are 39.2 nM and 69%.
In turn, `O=C(NC1CCCCC1)[C@H]1C[C@@H](O)CN1CC1CCCC1` [Example 30] returned an inhibition at 0.1 µM (compound at 0.1 μM) of 63%.
In turn, `O=C(NC1CCCCC1)[C@H]1C[C@@H](O)CN1Cc1ccc(F)cc1` [Example 31] yielded an inhibition at 0.1 µM (compound at 0.1 μM) of 53%.
On the same count and under the same terms, to `CC(C)CN1CCOC[C@@H]1C(=O)NCc1c(F)cccc1F` [Example 32] belongs 67%; to `CC(C)CN1CCOC[C@@H]1C(=O)NCc1cccc(F)c1` [Example 33], 65%.
Turning to `CC(C)CN1CCOC[C@@H]1C(=O)NCc1ccc(F)cc1` [Example 34], the Ki (human 11b-hsd-1) came out at 18 nM. Under “compound at 0.1 μM”, the inhibition at 0.1 µM turned out to be 79%.
`CCOc1ccccc1CNC(=O)[C@H]1COCCN1CC(C)C` [Example 35]: under “human 11b-hsd-1”, the Ki is 22.6 nM. This compound also came in with an inhibition at 0.1 µM (compound at 0.1 μM) of 82%.
Take `CN(Cc1ccc(F)cc1)C(=O)[C@H]1COCCN1Cc1ccc(C#N)cc1` [Example 36]: the Ki (human 11b-hsd-1) came to 21.4 nM. Moreover, for the setting “compound at 0.1 μM”, testing at 0.1 µM gave an inhibition of 90%.
The like results for `CC(C)CN1CCOC[C@@H]1C(=O)N(C)Cc1ccc(F)cc1` [Example 37] were, in that order, 39.3 nM and 100%.
As for `CCCN1CCC[C@@H]1C(=O)NC1Cc2ccccc2C1` [Example 38], under “human 11b-hsd-1”, the Ki came out at 7.9 nM. The compound also had an inhibition at 0.1 µM (compound at 0.1 μM) of 90.4%.
The like results for `O=C(NC1CCc2ccccc21)[C@H]1CCCN1CC1CCCC1` (stereo partly shown) [Example 39] were, in that order, less than 1 nM and 100%.
In the same order, the values of `Cc1ncccc1CNC(=O)[C@H]1CCCN1CC(C)C` [Example 40] are 19 nM and 100%.
The like results for `O=C(NC1C2CC3CC(C2)CC1C3)[C@H]1CCCN1Cc1ccccn1` (stereo partly shown) [Example 41] were, in that order, less than 1 nM and 100%.
For `CN1CCC(CN2C[C@H](O)C[C@@H]2C(=O)NC2CCCCC2)CC1` [Example 42, (4R)-N-cyclohexyl-4-hydroxy-1-[(1-methylpiperidin-4-yl)methyl]-D prolinamide], under “compound at 0.1 μM”, at 0.1 µM the inhibition was 0%.
Still for that read-out and setting: to `CN(C)CCN1C[C@H](O)C[C@@H]1C(=O)NC1C2CC3CC(C2)CC1C3` (stereo partly shown) [Example 43] belongs 31.9%.
The same measure, in the same setting: to `CN(C)CCN1CCOC[C@@H]1C(=O)NC1C2CC3CC(C2)CC1C3` (stereo partly drawn) [Example 44, (3R)-N-2-adamantyl-4-[2-(dimethylamino)ethyl]morpholine-3-carboxamide] belongs 59.4%; to `NC1C[C@H](C(=O)NC2C3CC4CC(C3)CC2C4)N(CC2CCCC2)C1` (stereo partly drawn) [Example 45, N-2-adamantyl-4-amino-1-(cyclopentylmethyl)-D-prolinamide], 81%.
On to `CN1CCC(CN2C[C@H](O)C[C@@H]2C(=O)NC2C3CC4CC(C3)CC2C4)CC1` (stereo partly drawn) [Example 47, (4R)-N-2-adamantyl-4-hydroxy-1-[(1-methylpiperidin-4-yl)methyl]-D prolinamide], for which the inhibition at 0.1 µM (compound at 0.1 μM) is 38%.
Still for that read-out and setting: to `O=C(NC1C2CC3CC(C2)CC1C3)[C@H]1C[C@@H](O)CN1CC1CCOCC1` (stereo partly shown) [Example 48] belongs 83%; to `CN(C(=O)[C@H]1COCCN1CC1CCOCC1)C1CCCCC1` [Example 49], 64%.
With `O=C(NC1CCCCC1)[C@H]1CCCN1CC1CCCC1` [Example 50], the Ki (human 11b-hsd-1) turned out to be 1.3 nM. Besides, the inhibition at 0.1 µM (compound at 0.1 μM) came to 100%.
In the same order, the values of `CC(C)CN1CCC[C@@H]1C(=O)N[C@@H]1CCCc2ccccc21` [Example 51] are 1 nM and 100%.
Turning to `N#Cc1ccc(CN2CCC[C@@H]2C(=O)NC2CCCCC2)cc1` [Example 52], under “human 11b-hsd-1”, the Ki was found to be 4.6 nM. The inhibition at 0.1 µM (compound at 0.1 μM) amounted to 100%.
In the same order, the values of `CCOc1ccccc1CNC(=O)[C@H]1CCCN1CC(C)C` [Example 53] are 4.6 nM and 100%.
In the same order, the values of `CCOc1ccccc1CNC(=O)[C@H]1CCCN1CC1CCCC1` [Example 54] are 13.2 nM and 94%.
The like results for `CCCN1CCC[C@@H]1C(=O)NC1CCCCC1C` (stereo partly shown) [Example 55] were, in that order, 3.7 nM and 100%.
On to `CCCN1CCC[C@@H]1C(=O)N[C@@H]1CCCc2ccccc21` [Example 56], for which, where the note is “human 11b-hsd-1”, the Ki turned out to be 8 nM. Under “compound at 0.1 μM”, this compound came in with an inhibition at 0.1 µM of 92%.
In the same order, the values of `CC(C)CN1CCOC[C@@H]1C(=O)NCc1ccccc1F` [Example 57] are 23.4 nM and 81%.
Take `CCN1CCC[C@@H]1C(=O)NC1CCCCC1C` (stereo partly shown) [Example 58]: the Ki (human 11b-hsd-1) came to 28 nM. Besides, where the note is “compound at 0.1 μM”, the inhibition at 0.1 µM worked out at 70%.
With `CC1(C(=O)NC2CCCCC2)CCCN1Cc1ccc(C#N)cc1` (stereo not shown) [Example 59], for the setting “human 11b-hsd-1”, the Ki came to 22 nM. The compound further returned an inhibition at 0.1 µM (compound at 0.1 μM) of 71%.
